Measured values taken from the supplement of paper PMC10307832.

Experiments:
Experiment in all cases: relative viability (nuclei count vs DMSO), 5 days (fraction); higher = more cells survive
[1] = compound: C[C@@]1(C(=O)Nc2ccc(F)nc2)CCCN1c1nc(Nc2cc(C3CC3)n[nH]2)c2cccn2n1 + COc1cc2c(Oc3ccc(NC(=O)C4(C(=O)Nc5ccc(F)cc5)CC4)cc3F)ccnc2cc1OCCCN1CCOCC1 [Foretinib] (partner 0.25 µM)
How it was run: (§1)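 Dosing by pin tool came one day after lung cancer cell lines were seeded in 1536-well plates, using either one drug or a fixed anchor-drug dose plus five library-drug doses (not always all listed) in √10 steps. After 5 days, nuclei were counted on 4× images. Relative viability is treated-well nuclei count divided by vehicle-well nuclei count, and values are medians of duplicate plates.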

[2] = compound: C[C@@]1(C(=O)Nc2ccc(F)nc2)CCCN1c1nc(Nc2cc(C3CC3)n[nH]2)c2cccn2n1 + CC(C)C[C@H](NC(=O)[C@H](Cc1ccccc1)NC(=O)c1cnccn1)B(O)O [Bortezomib] (partner 0.002 µM)
How it was run: as §1

[3] = compound: CC1(C)CNc2cc(NC(=O)c3cccnc3NCc3ccncc3)ccc21 [Motesanib] + Cc1cc(Nc2cc(N3CCN(C)CC3)nc(Sc3ccc(NC(=O)C4CC4)cc3)n2)n[nH]1 [Tozasertib] (partner 0.1 µM)
How it was run: as §1

[4] = compound: C[C@@]1(C(=O)Nc2ccc(F)nc2)CCCN1c1nc(Nc2cc(C3CC3)n[nH]2)c2cccn2n1 + C[C@]1(O)C[C@@H](c2nc(-c3ccc4ccc(-c5ccccc5)nc4c3)c3c(N)nccn32)C1 [Linsitinib] (partner 1 µM)
How it was run: as §1

Cell Line | relative viability ([1]; first compound 0.04 µM) | relative viability ([1]; first compound 0.1265 µM) | relative viability ([1]; first compound 0.4 µM) | relative viability ([1]; first compound 1.265 µM) | relative viability ([2]; first compound 0.04 µM) | relative viability ([2]; first compound 0.1265 µM) | relative viability ([2]; first compound 0.4 µM) | relative viability ([2]; first compound 1.265 µM) | relative viability ([3]; first compound 0.01 µM) | relative viability ([3]; first compound 0.03162 µM) | relative viability ([3]; first compound 0.1 µM) | relative viability ([3]; first compound 0.3162 µM) | relative viability ([3]; first compound 1 µM) | relative viability ([4]; first compound 0.04 µM) | relative viability ([4]; first compound 0.1265 µM) | relative viability ([4]; first compound 0.4 µM) | relative viability ([4]; first compound 1.265 µM)
NCI-H23 | 0.591 | 0.539 | 0.622 | 0.914 | 0.642 | 0.44 | 0.472 | 0.442 | 0.346 | 0.31 | 0.341 | 0.363 | 0.333 | 0.612 | 0.5 | 0.484 | 0.613
NCI-H322M | 0.907 | 0.608 | 0.62 | 0.655 | 1.22 | 0.894 | 1.06 | 1.1 | 0.494 | 0.442 | 0.502 | 0.485 | 0.447 | 0.968 | 0.83 | 0.865 | 0.96
NCI-H441 | 0.631 | 0.46 | 0.599 | 0.707 | 0.567 | 0.285 | 0.276 | 0.463 | 0.675 | 0.518 | 0.66 | 0.543 | 0.578 | 0.435 | 0.417 | 0.476 | 0.543
NCI-H460 | 1.06 | 0.939 | 1.03 | 0.87 | 1.13 | 0.991 | 0.892 | 0.93 | 0.416 | 0.266 | 0.514 | 0.442 | 0.485 | 0.834 | 0.667 | 0.708 | 0.82
NCI-H520 | 1.01 | 0.612 | 0.796 | 0.768 | 0.621 | 0.446 | 0.501 | 0.483 | 0.37 | 0.371 | 0.453 | 0.45 | 0.447 | 0.951 | 0.867 | 0.915 | 1.07
NCI-H596 | 0.731 | 0.752 | 0.649 | 0.972 | 0.908 | 0.892 | 0.929 | 1 | 0.917 | 1.27 | 1.04 | 0.843 | 1.01 | 0.954 | 1.02 | 0.939 | 1.18
NCI-H647 | 1.18 | 1.08 | 0.886 | 1.17 | 1.15 | 0.9 | 0.706 | 0.791 | 0.304 | 0.239 | 0.285 | 0.404 | 0.359 | 1.17 | 1.2 | 0.952 | 1.26
NCI-H650 | 1.02 | 0.738 | 0.819 | 0.782 | 0.699 | 0.762 | 0.605 | 0.46 | 0.749 | – | 0.709 | 0.707 | 0.701 | 1.19 | 0.706 | 0.804 | 0.721
NCI-H661 | 1.04 | 1.03 | 1.06 | 0.936 | 0.924 | 1.08 | 0.653 | 0.819 | 0.372 | 0.357 | 0.367 | 0.361 | 0.351 | 0.63 | 0.809 | 0.571 | 0.545
NCI-H727 | 0.694 | 0.396 | 0.357 | 0.324 | 0.763 | 0.385 | 0.339 | 0.338 | 0.603 | 0.574 | 0.638 | 0.645 | 0.577 | 0.349 | 0.135 | 0.232 | 0.283
NCI-H838 | 1.08 | 0.819 | 0.631 | 0.887 | 0.807 | 0.687 | 0.498 | 0.547 | 0.296 | 0.244 | 0.255 | 0.236 | 0.249 | 1.09 | 0.848 | 0.753 | 0.874
NCI-H1355 | 0.929 | 0.87 | 0.701 | 1 | 1.15 | 1.04 | 0.948 | 0.969 | 0.556 | 0.414 | 0.639 | 0.59 | 0.448 | 0.815 | 0.882 | 0.727 | 0.887
NCI-H1437 | 1.31 | 1.2 | 1.04 | 1.11 | 0.398 | 0.521 | 0.328 | 0.276 | 0.398 | 0.375 | 0.393 | 0.423 | 0.408 | 0.935 | 0.833 | 0.671 | 0.843
NCI-H1651 | 0.775 | 0.704 | 0.621 | 0.895 | 0.956 | 0.871 | 0.864 | 0.825 | 0.67 | 0.655 | 0.754 | 0.732 | 0.797 | 1.04 | 0.898 | 0.984 | 1.12
NCI-H1666 | 0.925 | 0.909 | 0.778 | 0.784 | 0.678 | 0.434 | 0.455 | 0.444 | 0.665 | 0.599 | 0.634 | 0.6 | 0.617 | 0.89 | 0.87 | 0.753 | 0.831
NCI-H1734 | 0.603 | 0.494 | 0.336 | 0.408 | 0.856 | 0.781 | 0.641 | 0.577 | 0.312 | 0.253 | – | 0.25 | 0.254 | 0.771 | 0.722 | 0.794 | 0.903

Cell Line | relative viability ([1]; first compound 0.04 µM) | relative viability ([1]; first compound 0.1265 µM) | relative viability ([1]; first compound 0.4 µM) | relative viability ([1]; first compound 1.265 µM) | relative viability ([2]; first compound 0.04 µM) | relative viability ([2]; first compound 0.1265 µM) | relative viability ([2]; first compound 0.4 µM) | relative viability ([2]; first compound 1.265 µM) | relative viability ([3]; first compound 0.01 µM) | relative viability ([3]; first compound 0.03162 µM) | relative viability ([3]; first compound 0.1 µM) | relative viability ([3]; first compound 0.3162 µM) | relative viability ([3]; first compound 1 µM) | relative viability ([4]; first compound 0.04 µM) | relative viability ([4]; first compound 0.1265 µM) | relative viability ([4]; first compound 0.4 µM) | relative viability ([4]; first compound 1.265 µM)
NCI-H1755 | 0.914 | 0.729 | 0.85 | 0.89 | 0.957 | 0.838 | 0.85 | 0.881 | 0.498 | 0.588 | 0.568 | 0.652 | 0.537 | 1.01 | 0.954 | 0.895 | 1.04
NCI-H1915 | 1.11 | 1.04 | 1.04 | 1.18 | 1.06 | 0.95 | 0.952 | 1.01 | 0.401 | 0.408 | 0.478 | 0.456 | 0.434 | 1.08 | 1.08 | 1.08 | 1.16
NCI-H1975 | 0.861 | 0.962 | 0.88 | 0.716 | 0.344 | 0.34 | 0.299 | 0.308 | 0.771 | 0.65 | 0.773 | 0.711 | 0.648 | 0.913 | 0.922 | 0.933 | 0.727
NCI-H1993 | 0.659 | 0.67 | 0.532 | 0.555 | 0.797 | – | 0.615 | 0.674 | 0.603 | 0.614 | 0.552 | 0.501 | 0.605 | 0.705 | – | 0.723 | 0.733
NCI-H2009 | 1.23 | 1.25 | 1.1 | 1.14 | 1.13 | 1.17 | 0.931 | 0.875 | 0.731 | 0.705 | 0.747 | 0.691 | 0.721 | 1.2 | 1.2 | 1.13 | 1.19
NCI-H2023 | 0.488 | 0.475 | 0.36 | 0.279 | 0.912 | 0.821 | 0.62 | 0.244 | 0.379 | 0.309 | 0.346 | 0.325 | 0.286 | 0.699 | 0.619 | 0.537 | 0.657
NCI-H2085 | 0.989 | 0.736 | 0.73 | 0.675 | 1.04 | 0.927 | 0.834 | 0.945 | 0.852 | 0.749 | 0.886 | 0.818 | 0.797 | 0.877 | 0.873 | 0.809 | 0.822
NCI-H2087 | 0.812 | 0.801 | 0.705 | 0.72 | 0.778 | 0.825 | 0.624 | 0.631 | 0.208 | 0.204 | 0.261 | 0.208 | 0.258 | 0.933 | 0.935 | 0.962 | 0.932
NCI-H2126 | 0.885 | 0.661 | 0.485 | 0.865 | 1.08 | 0.861 | 0.769 | 0.746 | 0.883 | 0.922 | 0.915 | 0.855 | 0.867 | 0.736 | 0.685 | 0.712 | 0.771
NCI-H2228 | 0.719 | 0.686 | 0.491 | 0.537 | 1.25 | 0.731 | 0.835 | 0.751 | 0.355 | 0.184 | 0.289 | 0.272 | 0.251 | 0.679 | 0.616 | 0.69 | 0.769
NCI-H2347 | 1.32 | 0.818 | 1.02 | 0.834 | 1.05 | 0.654 | 0.916 | 0.765 | 0.466 | 0.445 | 0.548 | 0.524 | 0.443 | 0.988 | 0.736 | 0.915 | 0.893
NCI-H2405 | 0.866 | 0.818 | 0.742 | 0.77 | 1 | 0.682 | 0.835 | 0.896 | – | 0.602 | 0.814 | 0.769 | 0.784 | 1.04 | 0.91 | 0.779 | 0.766
NCI-H3122 | 0.978 | 0.937 | 0.942 | 0.893 | 0.993 | 1.03 | 1.04 | 0.944 | 0.301 | 0.369 | 0.409 | 0.475 | 0.452 | 1.04 | 1.1 | 1.01 | 1.06
PC-3 [JPC-3] | 1.08 | 1.02 | 0.959 | 1.34 | 0.831 | 0.819 | 0.788 | 0.874 | 0.855 | 0.931 | 0.884 | 0.864 | 0.85 | 0.972 | 0.94 | 0.964 | 0.934
PC-14 | 1.04 | 0.888 | 0.813 | 0.93 | 0.846 | 0.715 | 0.674 | 0.799 | 0.563 | 0.657 | 0.518 | 0.618 | 0.617 | 1.09 | 0.814 | 0.825 | 1.01
